Consider 2 molecules from US6683103B2, “Sulfonamides for treatment of endothelin-mediated disorders” (Texas Biotechnology Corporation, priority 1997, dated 2004).

One experiment concerns the target T1, human ETA receptors (Homo sapiens, UniProt P25101).
T1 construct: endogenous in cells; host or cells: TE 671 cells (ATCC HTB 139)
T1 sequence (P25101 21-427): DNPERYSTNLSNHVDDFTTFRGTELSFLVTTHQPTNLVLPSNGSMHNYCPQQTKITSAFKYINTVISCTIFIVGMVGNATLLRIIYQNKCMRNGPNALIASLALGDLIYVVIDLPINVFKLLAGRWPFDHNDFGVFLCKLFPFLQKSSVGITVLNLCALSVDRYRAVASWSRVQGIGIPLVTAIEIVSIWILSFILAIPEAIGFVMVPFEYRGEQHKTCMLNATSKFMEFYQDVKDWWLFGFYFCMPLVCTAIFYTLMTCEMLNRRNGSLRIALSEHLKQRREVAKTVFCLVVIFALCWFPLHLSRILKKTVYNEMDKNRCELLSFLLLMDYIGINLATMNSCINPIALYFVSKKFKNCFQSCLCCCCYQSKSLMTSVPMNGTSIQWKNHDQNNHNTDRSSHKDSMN
The experiment is described as follows: Binding Test #1: inhibition of 125I-ET-1 binding to ETA receptors (TE 671 cell membranes). Conditions: Table 1; † incubation at 24° C.; read-out: ETA. In outline: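 Membranes from TE 671 cells (up to 8 μg protein) incubated with ¹²⁵I-ET-1 and compound (1 nM–100 μM final) in 30 mM HEPES pH 7.4, 150 mM NaCl, 5 mM MgCl2, 0.5% bacitracin, 16–18 h at 4 °C or alternatively at 24 °C. Nonspecific binding with 80 nM ET-1; bound pellet gamma-counted, % inhibition calculated, usually triplicate.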

A further experiment deals with T2, human ETB receptor (Homo sapiens, UniProt P24530).
T2 construct: expressed in transfected cells; host or cells: COS7 cells
T2 sequence (P24530 27-442): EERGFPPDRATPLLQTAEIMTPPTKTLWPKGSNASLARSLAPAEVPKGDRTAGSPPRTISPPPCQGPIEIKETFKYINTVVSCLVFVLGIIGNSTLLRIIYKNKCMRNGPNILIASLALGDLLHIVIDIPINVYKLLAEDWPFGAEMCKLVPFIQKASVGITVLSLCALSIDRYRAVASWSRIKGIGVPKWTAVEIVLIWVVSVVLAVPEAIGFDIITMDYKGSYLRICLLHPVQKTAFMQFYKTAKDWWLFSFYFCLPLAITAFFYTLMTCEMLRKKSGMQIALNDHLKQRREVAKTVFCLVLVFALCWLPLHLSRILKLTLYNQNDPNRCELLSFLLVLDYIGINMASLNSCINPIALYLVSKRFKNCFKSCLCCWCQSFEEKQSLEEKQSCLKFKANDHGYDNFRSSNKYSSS
Briefly: Binding Test #2: inhibition of 125I-ET-1 binding to ETB receptors (transfected COS7 cell membranes). Conditions: Table 1; † incubation at 24° C.; read-out: ETB. The procedure, abridged: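 Competition with 125I-ET-1 for binding to membranes from COS7 cells transfected with human ETB receptor, used at 1 μg/50 μl binding buffer. Membranes prepared in HEPES pH 7.4 with aprotinin, including a DNase/MnCl2 step at 37 °C for 30 min.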

As to `Cc1cc2c(cc1CC(=O)c1sccc1S(=O)(=O)Nc1onc(C)c1Cl)OCO2` [N-(4-chloro-3-methyl-5-isoxazolyl)-2-[2-methyl-4,5-(methylenedioxy)phenylacetyl]thiophene-3-sulfonamide], the IC50 on human ETA receptors stood at 0.0032 µM; at human ETB receptor, 9 µM.

On to `Cc1noc(NS(=O)(=O)c2ccsc2C(=O)Cc2ccc3c(c2)OCO3)c1Cl` [N-(4-chloro-3-methyl-5-isoxazolyl)-2-[(3,4-(methylenedioxy)phenylacetyl]thiophene-3-sulfonamide], for which the IC50 at human ETA receptors came out at 0.021 µM; at human ETB receptor it was 6.5 µM.
